Experiments:
[1] = for surface tension liquid-gas: Ring tensiometer; for mass density: 101.33 kPa, Liquid
[2] = xn = mol fraction of the nth substance listed; details: Ring tensiometer

OCc1ccccc1 [benzenemethanol]
[1]
Details | mass density [kg/m3] | surface tension liquid-gas [mN/m]
293.15 K | 1045.2 | 39.05
298.15 K | 1041.4 | 38.58
303.15 K | – | 38.12
308.15 K | – | 37.63
313.15 K | – | 37.16
318.15 K | 1025.8 | 36.63
323.15 K | – | 36.18

OCc1ccccc1 [benzenemethanol] + CCCO
surface tension liquid-gas [mN/m], [2]
Details | x2 = 0 | x2 = 0.003 | x2 = 0.0062 | x2 = 0.0077 | x2 = 0.0116 | x2 = 0.0212 | x2 = 0.0326 | x2 = 0.0498
293.15 K | 39.05 | 37.57 | 37.01 | 36.88 | 36.75 | 36.35 | 35.95 | 35.62
298.15 K | 38.58 | 37.07 | 36.62 | 36.48 | 36.36 | 35.98 | 35.6 | 35.22
303.15 K | 38.12 | 36.6 | 36.23 | 36.12 | 36 | 35.62 | 35.3 | 34.86
308.15 K | 37.63 | 36.15 | 35.84 | 35.74 | 35.63 | 35.23 | 34.98 | 34.48
313.15 K | 37.16 | 35.64 | 35.44 | 35.36 | 35.2 | 34.83 | 34.67 | 34.14
318.15 K | 36.63 | 35.19 | 35.07 | 35 | 34.85 | 34.5 | 34.38 | 33.76
323.15 K | 36.18 | 34.73 | 34.68 | 34.64 | 34.44 | 34.13 | 34.03 | 33.41

CCCCO [butan-1-ol]
[1]
Details | mass density [kg/m3] | surface tension liquid-gas [mN/m]
293.15 K | 810.4 | 24.16
298.15 K | 806.5 | 23.7
303.15 K | – | 23.26
308.15 K | – | 22.78
313.15 K | – | 22.39
318.15 K | 790.9 | 21.99
323.15 K | – | 21.53

CCCCO [butan-1-ol] + OCc1ccccc1
[2], x1 = 1
Details | surface tension liquid-gas [mN/m]
293.15 K | 24.16
298.15 K | 23.7
303.15 K | 23.26
308.15 K | 22.78
313.15 K | 22.39
318.15 K | 21.99
323.15 K | 21.53

CCC(C)O (stereo not drawn) [butan-2-ol]
[1]
Details | mass density [kg/m3] | surface tension liquid-gas [mN/m]
293.15 K | 807.1 | 23.18
298.15 K | 802.9 | 22.74
303.15 K | – | 22.38
308.15 K | – | 21.94
313.15 K | – | 21.56
318.15 K | 785.5 | 21.11
323.15 K | – | 20.76

CCC(C)O (stereo not drawn) [butan-2-ol] + OCc1ccccc1
[2], x1 = 1
Details | surface tension liquid-gas [mN/m]
293.15 K | 23.18
298.15 K | 22.74
303.15 K | 22.38
308.15 K | 21.94
313.15 K | 21.56
318.15 K | 21.11
323.15 K | 20.76

CCCCCO [pentan-1-ol]
[1]
Details | mass density [kg/m3] | surface tension liquid-gas [mN/m]
293.15 K | 815.3 | 25.69
298.15 K | 811.6 | 25.29
303.15 K | – | 24.86
308.15 K | – | 24.49
313.15 K | – | 24.06
318.15 K | 796.6 | 23.67
323.15 K | – | 23.3

CCCCCO [pentan-1-ol] + OCc1ccccc1
[2], x1 = 1
Details | surface tension liquid-gas [mN/m]
293.15 K | 25.69
298.15 K | 25.29
303.15 K | 24.86
308.15 K | 24.49
313.15 K | 24.06
318.15 K | 23.67
323.15 K | 23.3

CCCC(C)O (stereo not drawn) [pentan-2-ol]
[1]
Details | mass density [kg/m3] | surface tension liquid-gas [mN/m]
293.15 K | 809.8 | 23.7
298.15 K | 805.7 | 23.28
303.15 K | – | 22.87
308.15 K | – | 22.43
313.15 K | – | 22.04
318.15 K | 788.8 | 21.6
323.15 K | – | 21.16

CCCC(C)O (stereo not drawn) [pentan-2-ol] + OCc1ccccc1
[2], x1 = 1
Details | surface tension liquid-gas [mN/m]
293.15 K | 23.7
298.15 K | 23.28
303.15 K | 22.87
308.15 K | 22.43
313.15 K | 22.04
318.15 K | 21.6
323.15 K | 21.16

CCCO [propan-1-ol]
[1]
Details | mass density [kg/m3] | surface tension liquid-gas [mN/m]
293.15 K | 803.1 | 23.73
298.15 K | 799.3 | 23.3
303.15 K | – | 22.9
308.15 K | – | 22.52
313.15 K | – | 22.1
318.15 K | 783.2 | 21.68
323.15 K | – | 21.27

CCCO [propan-1-ol] + OCc1ccccc1
[2], x1 = 1
Details | surface tension liquid-gas [mN/m]
293.15 K | 23.73
298.15 K | 23.3
303.15 K | 22.9
308.15 K | 22.52
313.15 K | 22.1
318.15 K | 21.68
323.15 K | 21.27

CC(C)O [propan-2-ol]
[1]
Details | mass density [kg/m3] | surface tension liquid-gas [mN/m]
293.15 K | 785.1 | 21.3
298.15 K | 780.9 | 20.95
303.15 K | – | 20.55
308.15 K | – | 20.2
313.15 K | – | 19.83
318.15 K | 763.3 | 19.47
323.15 K | – | 19.09

CC(C)O [propan-2-ol] + OCc1ccccc1
[2], x1 = 1
Details | surface tension liquid-gas [mN/m]
293.15 K | 21.3
298.15 K | 20.95
303.15 K | 20.55
308.15 K | 20.2
313.15 K | 19.83
318.15 K | 19.47
323.15 K | 19.09

Source: the NIST ThermoML archive (doi:10.1021/je0500431)
